In patent publication US20170107207A1, “AMINOPYRAZOLONE DERIVATIVE” (DAIICHI SANKYO COMPANY, LIMITED, priority 2014, published 2017):

Columns and labels:
Type in all cases: cell-based
[1] = test system: HCT-15; assay: Cell growth inhibition test, HCT-15; settings: Homo sapiens, 72 h; HCT-15, Large intestine cancer, 3 days, CellTiter-Glo
Protocol: (§1) A cell growth inhibition test was carried out by treating a cultured cancer cell line with a test compound for a given period and then counting the number of viable cells by CellTiter-Glo Luminescent Cell Viability Assay (manufactured by Promega Corp.).
(§2) The following cells were inoculated to a 384-well plate containing the compound prepared in advance at predetermined concentrations. […]
(§3) The cells thus inoculated were cultured at 37° C. for 3 days under 5% CO2. […] Then, luminescence intensity was measured using a plate reader.
(§4) The number of viable cells and luminescence intensity have been confirmed to correlate with each other. Therefore, the rate of cell growth was calculated according to the following expression: Rate of cell growth (T/C %) of a test compound-supplemented well=100×[(B−C)/(A−C)] wherein A represents the luminescence intensity (final culture date) of a test compound-free well; B represents the luminescence intensity (final culture date) of a test compound-containing well; and C represents the luminescence intensity (day of cell inoculation) of a well at the start of contact of the cells with the test compound.
(§5) T/C % at the concentration of each of the serially diluted test compounds was determined. […]

[2] = test system: BT-474; assay: Cell growth inhibition test, BT-474; settings: Homo sapiens, 72 h; BT-474, Breast cancer, 3 days, CellTiter-Glo
Protocol: as §1, §2, §3, §4, §5

[3] = test system: KASUMI-1; assay: Cell growth inhibition test, KASUMI-1; settings: Homo sapiens, 72 h; KASUMI-1, Leukemia, 3 days, CellTiter-Glo
Protocol: as §1, §2, §3, §4, §5

[4] = test system: MCF7; assay: Cell growth inhibition test, MCF7; settings: Homo sapiens, 72 h; MCF7, Breast cancer, 3 days, CellTiter-Glo
Protocol: as §1, §2, §3, §4, §5

[5] = test system: COR-L23; assay: Cell growth inhibition test, COR-L23; settings: Homo sapiens, 72 h; COR-L23, Lung cancer, 3 days, CellTiter-Glo
Protocol: as §1, §2, §3, §4, §5

[6] = test system: DOHH-2; assay: Cell growth inhibition test, DOHH-2; settings: Homo sapiens, 72 h; DOHH-2, Lymphoma, 3 days, CellTiter-Glo
Protocol: as §1, §2, §3, §4, §5

[7] = test system: AN3CA; assay: Cell growth inhibition test, AN3CA; settings: Homo sapiens, AN3-CA, 72 h, Endometrial cancer, 3 days, CellTiter-Glo
Protocol: as §1, §2, §3, §4, §5

[8] = test system: FaDu; assay: Cell growth inhibition test, FaDu; settings: Homo sapiens, 72 h, Head and neck cancer, 3 days, CellTiter-Glo
Protocol: as §1, §2, §3, §4, §5

[9] = test system: U2 OS; assay: Cell growth inhibition test, U2 OS; settings: Homo sapiens, U2OS, 72 h, Bone and soft tissue tumor, 3 days, CellTiter-Glo
Protocol: as §1, §2, §3, §4, §5

[10] = test system: NCI-N87; assay: Cell growth inhibition test, NCI-N87; settings: Homo sapiens, 72 h; NCI-N87, Stomach cancer, 3 days, CellTiter-Glo
Protocol: as §1, §2, §3, §4, §5

[11] = test system: NCI-H146; assay: Cell growth inhibition test, NCI-H146; settings: Homo sapiens, 72 h; NCI-H146, Lung cancer, 3 days, CellTiter-Glo
Protocol: as §1, §2, §3, §4, §5

[12] = test system: U251; assay: Cell growth inhibition test, U251; settings: Homo sapiens, U-251, 72 h; U251, Brain tumor Central Nerve System, 3 days, CellTiter-Glo
Protocol: as §1, §2, §3, §4, §5

[13] = test system: HT-29; assay: Cell growth inhibition test, HT-29; settings: Homo sapiens, 72 h; HT-29, Large intestine cancer, 3 days, CellTiter-Glo
Protocol: as §1, §2, §3, §4, §5

| SMILES | GI50 [1] [nM] | GI50 [2] [nM] | GI50 [3] [nM] | GI50 [4] [nM] | GI50 [5] [nM] | GI50 [6] [nM] | GI50 [7] [nM] | GI50 [8] [nM] | GI50 [9] [nM] | GI50 [10] [nM] | GI50 [11] [nM] | GI50 [12] [nM] | GI50 [13] [nM] |
| --- | --- | --- | --- | --- | --- | --- | --- | --- | --- | --- | --- | --- | --- |
| CCOc1ncc(Cl)cc1C(=O)NCC(C)(C)CC(=O)Nc1c([C@H](C)CN(C)C)n(C)n(-c2ccccc2)c1=O [Example 73, 5-Chloro-N-[4-({5-[(1R)-2-(dimethylamino)-1-methylethyl]-1-methyl-3-oxo-2-phenyl-2,3-dihydro-1H-pyrazol-4-yl}amino)-2,2-dimethyl-4-oxobutyl]-2-ethoxypyridine-3-carboxamide] | 4000 | 5000 | 240 | 980 | 550 | 630 | 2200 | 460 | 920 | 660 | 2700 | 980 | 1200 |
| CCOc1cc(F)c(Cl)cc1C(=O)NCC(C)(C)CC(=O)Nc1c(COC)n(C)n(-c2ccccc2)c1=O [Example 113, 5-Chloro-2-ethoxy-4-fluoro-N-(4-{[5-(methoxymethyl)-1-methyl-3-oxo-2-phenyl-2,3-dihydro-1H-pyrazol-4-yl]amino}-2,2-dimethyl-4-oxobutyl)benzamide] | 800 | 25000 | 230 | 750 | 420 | 460 | 1400 | 350 | 640 | 530 | 2000 | 800 | 920 |
| CCOc1ccc(Cl)cc1C(=O)NCC(C)(C)CC(=O)Nc1c([C@H](C)CN(C)C)n(C)n(-c2ccccc2)c1=O [Example 68, 5-Chloro-N-[4-({5-[(1R)-2-(dimethylamino)-1-methylethyl]-1-methyl-3-oxo-2-phenyl-2,3-dihydro-1H-pyrazol-4-yl}amino)-2,2-dimethyl-4-oxobutyl]-2-ethoxybenzamide] | 2700 | 1900 | 140 | 530 | 200 | 240 | 740 | 210 | 530 | 270 | 1100 | 440 | 510 |
